Assays:
[1] = Peptide stability in human serum by MALDI-TOF mass spectrometry; type: in vitro ADME; conditions: for stability (integrity) compared to control Mut3DPT: 37° C., human serum/plasma, 0 to 24 h
Description: A) Mut3DPT, Mut4DPT, Mut5DPT, Mut6DPT and Mut7DPT peptides were incubated at 37° C. in human serum for different periods of time and their integrity (percentage of intact peptide) were analyzed by mass spectrometry. Similar results were obtained in two independent experiments.
FIG. 5. Mut3DPT, Tat, Penetratin and R8 were treated and analyzed as above. The stability is referred to the intensity of the peaks.
Mut3DPT, as well as Mut4DPT, Mut5DPT, Mut6DPT and Mut7DPT were incubated at 37° C. in 250 μl human serum for different periods of time. Samples were collected and peptide degradation stopped by freezing. Peptides were extracted from collected samples using the ProteoMiner Protein Enrichment System (Bio-Rad). Peptide integrity (percentage of intact peptide) was analyzed by mass spectrometry using a MALDI-TOF (Brücker Autoflex II) following their standard protocols. Every measurement was performed by triplicate. MS data were analyzed using appropriate software (Clinprot tools, Flex analysis, Brücker).
The inventors have analyzed whether these new generated peptides have enhanced stability in plasma, compared to the control Mut3DPT. The peptides were incubated for different periods of time (from 0 to 24 h) at 37° C. with human plasma and their stability was analyzed by mass spectrometry (MS). […] The synthetic peptides Mut5DPT, Mut6DPT and Mut7DPT are also very stable to proteases degradation, compared to the control peptide Mut3DPT. Taken together, we can conclude that there is no modification of the stability upon 24 h of incubation with human serum.

[2] = tested on: MCF-7, PBMC; assay: Internalization of shuttles by fluorescence microscopy, mass spectrometry and flow cytometry; type: cell-based, human; conditions: MCF-7 25 μM (microscopy), 100 μM (MS); B cells of PBMC 100 μM 4 h
Description: A) MCF-7 cells were grown on coverslips and incubated 1 h at 37° C. with 25 μM of FITC-labelled peptides. Cells were washed 3 times with PBS, fixed with 4% paraphormaldeyde (PFA) and analyzed by fluorescence microscopy. Quantification of the microscopy images is shown. B) MCF7 were grown as above and incubated for different periods of time at 37° C. with 25 μM of FITC-labelled shuttles. Cells were treated as above and analyzed by fluorescence microscopy.
MCF-7 cells were cultured 4 h with 100 μM of each shuttle. After several washing steps, they were lysed and the extracts centrifuged. The intracellular peptide was detected by MS. Pure peptide was used as a control of molecular weight.
A) B cells were isolated (anti-hCD19-APC antibody) from peripheral blood mononuclear cells (PBMC) of healthy donors (HD) or B) chronic lymphocytic leukemia (CLL) patients. Cells were incubated 4 h with 100 μM of the FITC-labelled shuttles. The mean fluorescence intensity was detected by flow cytometry. Non treated cells were used as control.
Peripheral blood mononuclear cells from healthy (HD) donors or chronic lymphocytic leukaemia patients (CLL) were treated with FITC-labelled peptides and them, cells were harvested and washed twice with PBS to remove the extracellular unbound peptide. FITC fluorescence intensity of internalized peptide was measured by flow cytometry (BD Biosciences) by acquiring 10,000 live cells. B cells were selected with anti hCD19-APC labelled antibody. Experiments were carried out three times in duplicate. Untreated cells were used as control.
(§1) For intracellular localization of FITC-labelled peptides, MDA-MB231 or MCF7 cells were seeded in an 8-well Labtek (Thermo Fischer) at a density of 2×10^4 cells/well. Cells were treated with different concentrations of FITC-labelled peptides for different times. Cells were fixed with 4% of formaldehyde for 15 min at room temperature. Samples were washed twice with PBS and mounted in mounting solution containing DAPI. Images were captured with a fluorescence microscopy (Olympus Japan) using 63× magnification objective.
To detect the internalization of the peptides, breast cancer cell line MCF-7 cells were seeded in a 6-well plate at a density of 1×10^6 cells/well in DMEM medium supplemented with 10% FCS. Cells were treated with 100 μM of each shuttle for 4 h at 37° C., then cells were washed once with PBS. Cell pellet was collected by detaching with Trypsin EDTA following several washing step with PBS. Cells were resuspended in lysis buffer (Tris-HCl 50 mM, NaCl 20 mM, pH 8.0, supplemented with protease inhibitors) and lysed with Glass/Teflon potter (Elvehjem homogenizers), then centrifuged for 20 min at 16,000 g at 4° C. The peptides in the supernatant were concentrated with Ziptips (Millpore, ZTC18S096) according to the manufacture's protocol. The internalization of peptide was detected by mass spectrometry (MS) using a MALDI-TOF (Brucker Autoflx II). MS data were analyzed using appropriate software (Clinprot tools, Flex analysis, Brucker).
The inventors incubated the cells (MCF-7, PBMC) with the peptides at different concentrations (respectively 25 μM, and 100 μM) and analyzed the presence of the shuttles into the cells by fluorescence microscopy, mass spectrometry (MS) and flow cytometry.

[3] = tested on: MCF-7 cells; assay: Intracellular detection of FITC-labelled peptides by FACS; type: cell-based, human; conditions: MCF-7 (similar in Jurkat); for kinetic of internalization compared to control peptide Mut3DPT: 50 μM, different periods of time
Description: (§2) MCF-7 or Jurkat cell lines were cultured in the presence or in the absence of Mut3DPT (Panel A), Mut4DPT (Panel B), Mut5DPT (Panel C), Mut6DPT (Panel D) or Mut7DPT (Panel E) at 50 μM for different periods of time. The intensity of the FITC fluorescence due to the shuttle internalization was measured by FACS. The results presented in the figure correspond to MCF-7 cells. Similar results were obtained using Jurkat cell line.
as §2, with “different concentrations” for “50 μM”, “4 h.” for “different periods of time.”
Jurkat and MCF-7 cells were incubated with different concentrations of FITC-labeled peptides, then washed and analyzed by FACS in order to detect the intensity of fluorescence into the cells. Similarly, Jurkat and MCF-7 cells were incubated with a given peptide concentration at different times and after washing, cells were analyzed by FACS to estimate the intensity of fluorescence into the cells.
The inventors incubated the cells (Jurkat and MCF-7) with the peptides at different concentrations and different times and analyzed the intensity of the fluorescence into the cells by FACS. The result of kinetic of time incubation is shown on FIG. 1 and the kinetic of peptide concentration is shown on FIG. 2.

[4] = tested on: MDA-MB231 cell line; assay: Toxicity of CPP-NLS peptides by FACS; conditions: 25 and 50 μM, 4 h of incubation
Description: MDA-MB231 cells (6×10^4 cells/ml) were incubated 4 h with two different concentrations of peptide. Toxicity was analyzed by flow cytometry. […] Non treated cells were used as a control.
The peptides were added to MDA-MB231 cell line at 25 and 50 μM and the toxicity was analyzed by FACS upon 4 h of incubation.

[5] = tested on: MDA-MB231 cells; assay: Intracellular localization of FITC-labelled peptides by fluorescence microscopy; type: cell-based, human; conditions: 30 μM, 4 h
Description: MDA-MB231 cells (3×10^4 cells/ml) were grown on cover slips and incubated 4 h with 30 μM of FITC-labelled peptides. Cells were washed 3 times with PBS, fixed with 4% paraformaldeyde (PFA) and analyzed by fluorescence microscopy. Cells treated with mut7DPT-FITC were used as control.
MDA-MB231 cells (3×10^4 cells/ml) were grown on cover slips and incubated with 30 μM of peptide for different periods of time. Cells were washed 3 times with PBS, fixed with 4% PFA and analyzed by fluorescence microscopy.
MDA-MB231 cells (3×10^4 cells/ml) were incubated in cover slips for 3 h with 15 μM of the FITC-labelled peptides associated to a cargo (TEAD or YAP peptides). Cells were washed 3 times with PBS, fixed with 4% PFA and analyzed by fluorescence microscopy.
as §1, with “was” for “or MCF7 cells were”, “3×10^4” for “2×10^4”, “fixed or not” for “fixed”

[6] = tested on: MDA-MB231 cells; assay: Apoptosis by Annexin V-FITC staining, shuttles associated to TEAD cargo; type: cell-based, human; conditions: 10 and 25 μM, 4 h or 24 h
Description: MDA-MB231 cells (5×10^4 cells/ml) were cultured in the presence of different concentrations of shuttles or nuclear localization shuttles associated to the cargo TEAD for 4h or 24h (Non-treated, Panel A; Mut3DPT-TEAD, Panel B; NLS18, Panel C; NLS23, Panel D; NLS18 TEAD, Panel E, NLS23 TEAD, Panel F). Apoptosis was estimated by Annexin V-FITC staining. Cells treated with shuttle without cargo or nuclear localisation signal (NLS) were used as control. Standard deviation is shown.
The apoptosis induction of the different shuttles associated to a cargo (TEAD and YAP binding sites) was analyzed by annexinV-FITC staining (e Biosciences). Human breast cancer cell line MDA-MB231 was treated with different concentrations of peptide for 4 h and 24 h. After the treatment, cells were harvested, washed and treated according to the manufacturer protocol. The level of apoptosis was measured by flow cytometry (BD Biosciences, FACS Canto.
We further analyzed whether the weak apoptotic effect of the mut3DPT-TEAD peptide was increased in the new generated tri-functional peptides. Cells were cultured for 4 h or 24 h with 10 and 25 μM of NLS-18 or NLS-23 and apoptosis estimated by Annexin staining (FIG. 16). The association of TEAD interfering peptide to the NLS18 or NLS23 peptides strongly increases the apoptotic effect, compared to the control peptide.

Compound | internalization compared to the control peptide Mut3DPT [2] | kinetic of internalization compared to control peptide Mut3DPT [3] | stability (integrity) compared to control Mut3DPT [1] | internalization, ranking among the new peptides [2] | time to plateau of internalization ([3]; 50 μM FITC-labelled peptide) | further results
N=C(N)NCCC[C@H](NC(=O)[C@H](CCCNC(=N)N)NC(=O)[C@H](CCCNC(=N)N)NC(=O)[C@H](CCCNC(=N)N)NC(=O)[C@H](CCCNC(=N)N)NC(=O)[C@H](CCCNC(=N)N)NC(=O)[C@H](CCCNC(=N)N)NC(=O)[C@@H](N)CCCNC(=N)N)C(=O)O [Peptide R8, reference compound] |  |  |  |  |  | degradation compared to control Mut3DPT ([1]; 6 h incubation with human serum at 37° C.): stronger degradation; degradation ([1]; 24 h incubation with human serum): extensively degraded
KKWKKWKKWKK (Shuttle peptide Mut5DPT) | better internalization | better internalization | very stable |  |  | 
KKKKKWKKWKKK (Shuttle peptide Mut7DPT) | better internalization |  | very stable | a better internalization | 30 min | toxicity [4]: none of the peptides show toxicity; nuclear staining [5]: does not show nuclear staining
VKKWKIKWWIKI (shuttle peptide Mut4DPT) | better internalization | better internalization | as stable as the parental peptide |  |  | 
RRWRRWRRWRR (Shuttle peptide Mut6DPT) | better internalization | rapidly internalized | very stable | a better internalization | 15 min | share of the total fluorescence achieved one minute after incubation ([3]; 50 μM FITC-labelled peptide, 1 min): Around 50%
VKKKKIKAEIKI-RLQLVEFSAFVEPPDAVD (VKKKKIKAEIKIRLQLVEFSAFVEPPDAVD; Mut3DPT-TEAD) |  |  |  |  |  | apoptotic effect [6]: weak

— patent US10947276B2, “Cell penetrating peptides with improved internalization properties” (SORBONNE UNIVERSITE, priority 2016, dated 2021)
